Data reported in patent US20090264470A1 (priority 2006, published 2009).

Legend:
[1] = Acute administration: wet mash and food intake and 24 h body weight in lean male C57BL/6J mice; format: in vivo, mouse; settings: dosed orally at 10 mg/kg
Description: The goal of this study was to investigate the effects of various ratios of bupropion:(R)-norfluoxetine on body weight and food and water intake in male C57BL/6J mice habituated to the daily presentation of a palatable wet mash diet. […] Animals were maintained on normal-phase lighting. Test compounds were administered orally and measurements were made over the following 24 hours. All experiments included appropriate vehicle-treated control groups.
Sixty-two male C57BL/6J mice (weight range 20-25 g) were ordered from Harlan UK, Bicester, UK. The mice were individually housed in polypropylene cages at a temperature of 21±4° C. and 55%±20% humidity. Animals were maintained on a normal phase light-dark cycle (lights off for 12 h from 19:00-07:00 h) during which time the room was illuminated by red light. […] In addition, animals were habituated to a daily presentation of a wet mash diet (1 part powdered chow:1.5 parts tap water) placed on a dish on the cage floor. Animals were maintained under these conditions for at least ten days before experimentation commenced.
Typically an acute study was run each week with each study containing 60 animals. On the day prior to testing, the experimental animals were randomly allocated to suitable treatment groups. Animals were weighed and 2 h wet mash intake was calculated (to the nearest 0.1 g). […]
Drug administration occurred 60 minutes before the presentation of ‘wet mash’ which was at approximately 09:30 am. […] The mash was replaced with a fresh quantity of wet mash at the 4 hour time point. […] Wet mash was replaced with a known quantity of standard pellets at the 6 hour time point. […] Food and water intakes of the different groups of animals were measured concurrently. The animals were monitored at each reading and any overt drug-induced behavioural effects were recorded. […]
Results (body weights (g) at 0, 24 h; change in body weight (g) over 24; food and water intake at 1, 2, 4, 6 and 24 h and between 1-2 h, 2-4 h, 4-6 h) were expressed as mean values±SEM. […]

[2] = Body weight of diet-induced obese male C57BL/6J mice, repeated oral dosing for 28 days; format: in vivo, mouse; settings: Dunnett's test p<0.001; doses as in Table 2
Description: Sibutramine, which is currently used clinically, and rimonabant, which has recently received regulatory approval for the management of obesity were used as reference compounds.
Sixty-five C57BL/6J mice (7-8 weeks of age) were ordered from Charles River, Margate, Kent. Mice were group housed in polypropylene cages with free access to a high fat diet (D12451 45% of Kcal derived from fat; Research Diets, New Jersey, USA) and tap water at all times. Animals were maintained at 21±4° C. and 55±20% humidity on a normal phase 12 h light-dark cycle (lights on 04:30 h)
Animals were exposed to the high fat diet for 16 weeks. During this time body weight was recorded weekly. […] Body weight and food and water intake was recorded daily. […]
Body weight and food and water intake were recorded daily. Following drug administration the animals were examined and any overt behaviour was recorded. […]
The test compounds were dissolved in 1% methylcellulose. […] Drug doses were expressed as free base.
Resulting body weights, food intake and water intake were expressed as mean values±SEM, and the SEMs are calculated from residuals of the statistical model. Body weight data was analysed by ANCOVA with Day 1 as covariate followed by appropriate comparisons (two-tailed) to determine significant differences from the control group. […] Daily food and water intake data was analysed by ANOVA.

CB2 receptor = biological target: T1, CB2 receptor (Homo sapiens, UniProt P34972); assay: Ca2+i response to 2-AG (dose-response with or without compound), CB2 receptor bearing cells; format: cell-based; settings: CB2 receptor bearing cells (FIG. 2)
T1 construct: host or cells: CB2 receptor bearing cells

[3] = biological target: T2, Human Cannabinoid 1 (CB1) (Homo sapiens, UniProt P21554); assay: Ca2+i response to 2-AG (dose-response with or without compound), CB1 GqΔGi/CHO cells, DSIS flow cytometry; format: cell-based; settings: 2-AG with or without compound (FIG. 2)
T2 construct: expressed in transfected cells; host or cells: CHO cells stably expressing the GqΔGi chimera
Text: cDNA for the G protein GqΔGi chimera was generated by PCR and inserted into the polylinker region of the pcDNA3/hygro+vector (Invitrogen). Stable expression of GqΔGi chimera protein in CHO cell line was generated under hygromycin selection. Human Cannabinoid 1 (CB1) cDNA was inserted into the polylinker region of the pcDNA3.1/(+) vector (Invitrogen) and DNA was introduced into the GqΔGi/CHO cell line by Lipofectamine reagent (Invitrogen). Cell lines stably expressing the CB receptor with Gq ΔGi chimera protein were generated by double selection with hygromycin and G418 (Coward, P., et al. 1999. Chimeric G proteins allow a high-throughput signaling assay of Gi-coupled receptors. Anal Biochem. 270:242-8).
CB1 Cells were plated 24-48 hours in advance, and were harvested with trypsin at ˜80% confluency. […]
The probe-loaded CB1 and Control cell mixture was placed in the Cell Suspension System on the DSIS where they were continuously rocked to keep them in a suspended state. […] The DSIS software, NVS Sampler, recorded a timing file and the CyAn software, Summit, recorded a data file. These two files were then compiled and analyzed by our proprietary software, NVS Analyzer, to determine the percent of cells that responded to each concentration. The data was transferred to GraphPAD Prism for a non-linear regression curve fit that determined the EC50. […]

[4] = biological target: T3, mouse CB1 (mouse brain membrane) (Mus musculus, UniProt P47746); assay: Competition ligand binding assay, mouse brain membrane preparations; settings: mouse brain membranes (FIG. 6)
T3 construct: human CB1 receptors or mouse brain membrane preparations in 96-well plate format; from tissue; host or cells: mouse brain membrane preparations
Description: (§1) Competition ligand binding assays were performed with the non-selective cannabinoid receptor agonist ([^3H]CP 55,940) (0.75 nM) in the binding buffer containing 50 mM Tris-HCl, pH 7.4, 3 mM MgCl2, 1 mM EDTA, 0.2% BSA using CHO-k1 cell membranes stably expressing human CB1 receptors or mouse brain membrane preparations in 96-well plate format. The receptor membranes (10 μg/well) were pre-incubated with different concentrations of tested compounds in the binding buffer at room temperature for 30 min prior to addition of 0.75 nM [^3H]CP 55,940 in a final volume of 100 μl. The binding was carried out at room temperature for another 2 h. To determine the non-specific binding, experiments were also performed in the presence of 10 μM unlabeled CP 55,940. Binding was terminated by addition of cold binding buffer and filtrated on Whatman GF/B glass-fiber filters using a sampling manifold. The filters were washed 6 times with cold binding buffer and air-dried overnight. The radioactivity was quantitated on a TopCounter (PerkinElmer) after adding scintillation fluid. Specific binding was defined as the difference between the binding in the presence and absence of 10 μM unlabeled CP 55, 940.

human CB1 receptors [5] = biological target: T4, human CB1 receptors (Homo sapiens, UniProt P21554); assay: Competition ligand binding assay, CHO-k1 cell membranes; settings: human CB1 cell membranes (FIG. 6)
T4 construct: expressed in transfected cells; host or cells: CHO-k1 cells (membranes)
Description: as §1

human CB1 receptors [6] = biological target: T4, human CB1 receptors; assay: [35S]GTPγS binding assay, CHO-k1 cell membranes; format: biochemical
Description: [^35S]GTPγS binding assays were performed with CHO-k1 cell membranes stably expressing human CB1 receptors in 96-well ScintiPlate (PerkinElmer). The membranes (12.5 μg/well) were preincubated with compound 7 in the binding buffer (50 mM Tris-HCl, pH 7.4, 100 mM NaCl, 3 mM MgCl2, 0.2 mM EDTA, 0.2% BSA and 10 μM GDP) at 30° C. for 30 min, then added various concentrations of agonists (WIN 55212-2 or CP 55,940) and [^35S]GTPγS (0.2 nM) in a final volume of 200 μl. Reactions were carried out at 30° C. for 60 min, followed by centrifugation of plate at […] for 15 min. After removing supernatant, the radioactivity was quantitated on a TopCounter.

T4 sequence (P21554 whole entry): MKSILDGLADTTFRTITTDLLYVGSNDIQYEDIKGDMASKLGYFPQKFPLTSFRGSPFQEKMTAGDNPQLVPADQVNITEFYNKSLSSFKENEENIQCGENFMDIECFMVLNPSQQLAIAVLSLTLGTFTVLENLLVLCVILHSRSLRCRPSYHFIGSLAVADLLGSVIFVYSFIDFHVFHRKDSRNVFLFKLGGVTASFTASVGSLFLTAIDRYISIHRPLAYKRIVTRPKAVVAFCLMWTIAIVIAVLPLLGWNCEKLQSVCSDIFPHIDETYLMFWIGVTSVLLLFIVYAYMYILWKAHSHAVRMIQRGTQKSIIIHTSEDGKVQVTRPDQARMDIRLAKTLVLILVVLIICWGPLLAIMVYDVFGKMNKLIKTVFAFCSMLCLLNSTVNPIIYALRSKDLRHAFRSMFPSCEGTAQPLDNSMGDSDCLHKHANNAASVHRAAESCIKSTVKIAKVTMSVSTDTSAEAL
T1 sequence (P34972 whole entry): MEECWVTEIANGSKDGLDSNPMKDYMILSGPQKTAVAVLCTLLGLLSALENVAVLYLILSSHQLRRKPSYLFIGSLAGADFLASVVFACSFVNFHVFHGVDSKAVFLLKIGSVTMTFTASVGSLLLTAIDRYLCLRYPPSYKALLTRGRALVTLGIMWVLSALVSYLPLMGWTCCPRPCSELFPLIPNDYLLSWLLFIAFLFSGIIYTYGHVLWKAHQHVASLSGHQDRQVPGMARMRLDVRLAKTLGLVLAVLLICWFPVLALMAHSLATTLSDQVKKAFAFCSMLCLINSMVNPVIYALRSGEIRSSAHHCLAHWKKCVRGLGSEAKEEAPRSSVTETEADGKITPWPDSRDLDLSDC
T3 sequence (P47746 whole entry): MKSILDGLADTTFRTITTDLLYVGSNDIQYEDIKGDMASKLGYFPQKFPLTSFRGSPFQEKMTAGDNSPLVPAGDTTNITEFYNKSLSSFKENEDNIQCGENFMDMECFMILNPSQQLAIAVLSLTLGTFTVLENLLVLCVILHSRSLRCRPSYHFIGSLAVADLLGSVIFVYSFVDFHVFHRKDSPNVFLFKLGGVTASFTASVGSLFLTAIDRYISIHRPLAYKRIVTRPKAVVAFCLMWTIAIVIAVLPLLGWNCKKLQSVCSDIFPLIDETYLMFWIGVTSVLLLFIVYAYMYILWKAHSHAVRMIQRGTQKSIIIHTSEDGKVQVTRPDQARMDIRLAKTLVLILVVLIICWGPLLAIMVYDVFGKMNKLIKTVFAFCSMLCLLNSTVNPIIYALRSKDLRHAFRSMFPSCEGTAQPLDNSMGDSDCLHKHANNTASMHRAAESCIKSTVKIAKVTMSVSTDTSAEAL
T2 sequence (P21554 whole entry): as the sequence (P21554 whole entry) above

| effect on the 2-AG dose response (Ca2+i) (CB2 receptor) | effect on the 2-AG dose response (Ca2+i) [3] | inhibition of binding of [3H]CP 55,940 [4] | inhibition of binding of [3H]CP 55,940 (human CB1 receptors [5]) | pA2 estimation using CP 55940 as an agonist (human CB1 receptors [6]; CB1 cell line membranes (FIG. 4)) | antagonist versus inverse agonist activity in [35S]GTPγS binding (human CB1 receptors [6]; response dropped below basal levels (FIG. 5)) | SMILES | 24 hour body weight change versus vehicle ([1]; one-way ANOVA (FIG. 10)) | daily food intake versus vehicle ([1]; one-way ANOVA (FIG. 15)) | body weight versus vehicle ([1]; one-way ANOVA (FIG. 16)) | weight reduction as compared to vehicle on day 29 [2] |
| --- | --- | --- | --- | --- | --- | --- | --- | --- | --- | --- |
|  |  |  |  |  |  | Cc1c(C(=O)NN2CCCCC2)nn(-c2ccc(Cl)cc2Cl)c1-c1ccc(Cl)cc1 [Rimonabant] | No significant differences versus vehicle | No significant differences versus vehicle | No significant differences versus vehicle | statistically significant weight reduction |
| No effect | right shift | almost fully inhibited | partially inhibited | did not support an allosteric effect | inverse agonist activity | Fc1ccc(C(OCCCc2c[nH]cn2)c2ccc(F)cc2)cc1 [compound 7] |  |  |  |  |
